# From US5104884A, “Triazolyl quinoline derivatives” (Alkaloida Vegyeszeti Gyar, priority 1985, dated 1992)
# Where two headings read alike, the source gives them in different places.
# How the values were obtained:
# [1] = test system: Erysiphe graminis f. sp. tritici; experiment: antifungal effect on Erysiphe graminis (powdery mildew on wheat plants, glasshouse); format: in vivo; conditions: Blumeria graminis; for inhibition at 50 µg/mL: 50 μg/ml; for inhibition at 100 µg/mL: 100 μg/ml; for inhibition at 150 µg/mL: 150 μg/ml; for inhibition at 200 µg/mL: 200 μg/ml; for inhibition at 400 µg/mL: 400 μg/ml; for inhibition at 25 µg/mL: 25 μg/ml
# Procedure: The compounds of the general Formula (I) are particularly effective against powdery mildew. In Table IV the activity of some compounds of the general […] against Erysiphe graminis f. sp. tritici strain are disclosed.
# The following test method is used: Glasshouse conditions: temperature 20° C.; relative humidity 80%; strength of illumination 6000 lux. The test plants MV-9 Automn wheat are cultivated in pots diameter 20 cm in a 1:1 mixture of sand and perlite. The average number of plants per pot amounts to 180, the height of the plants is 6-7 cm. About 8 ml of the aqueous suspension of the test compound is applied onto the plants with the aid of a sprayer.
# The rate of infectedness is determined after 8 days. Activity is calculated from the percental inhibition values. As control commercial products Fundazol 50 WP and Karathene LC 50 are used.
# [2] = adjuvant induced arthritis in rats, method of Newbold; format: in vivo, male Wistar rats; conditions: Rattus norvegicus, po, 504 h, read-out: Percental inhibition of the growth of paw volume, on the 21st day; for inhibition in vivo at 25 mg/kg: 25 mg/kg p.o. daily for two weeks
# Procedure: According to the method of Newbold 0.1 ml of Freund complet adjuvant (Difco Lab. Mich. […] The volume of the hind paws is measured before and 21 days after the administration of the adjuvant with the aid of a mercury plethysmometer. […] In Table II the "percental inhibition of the growth of paw volume" relates to the value determined on the 21st day. […] The tests show furthermore that the compounds of the present invention are active not only in healing morphological deformations but effect in a desirable and useful manner the functional condition and fitness of the feet, moreover the general physical state and condition of the animals, too.
# [3] = hot (56° C.) plate test on mice (analgesic effect); format: in vivo, male and female CFLP strain mice; conditions: Mus musculus, po, 1 h, read-out: Lengthening of reaction time in %; for change in vivo at 25 mg/kg: 25 mg/kg p.o.; for change in vivo at 50 mg/kg: 50 mg/kg p.o.; for change in vivo at 100 mg/kg: 100 mg/kg p.o.; for change in vivo at 12.5 mg/kg: 12.5 mg/kg p.o.
# Procedure: The analgesic effect of the compounds of the present invention is tested according to the hot (56° C.) plate test on male and female CFLP strain mice weighing 18-22 g. The point of time of the appearence of the deterring reaction Abwehrreaktion is determined and related to the latent time measured on the control group Woolfe and McDonald 1944. At least 10 animals are used per dose. […] The test is carried out on separated male Wistar rats weighing 180-210 g and fasted for 16 hours. The test compounds are suspended in 1% carboxy methyl cellulose and administered orally in a dose of 10 ml/kg.
# [4] = carrageenin edema inhibition in rats (antiphlogistic effect), Winter method; format: in vivo, male Wistar rats; conditions: Rattus norvegicus, po; for inhibition in vivo at 12.5 mg/kg: 12.5 mg/kg p.o.; for inhibition in vivo at 25 mg/kg: 25 mg/kg p.o.; for inhibition in vivo at 100 mg/kg: 100 mg/kg p.o.; for inhibition in vivo at 50 mg/kg: 50 mg/kg p.o.
# Procedure: Thus the orally administered compounds of the general Formula (I) efficiently reduce acute inflammatory processes. According to the method of Winter [Proc. Soc. Exp. Biol. Med. 111, 544 (1962)] carrageenin edema is induced and evaluated on male Wistar rats fasted for 16 hours body weight 160-180 g. Percental inhibition is calculated from the average edema values of the groups treated with the test compound on the one hand and with carrier carboxy methyl cellulose, CMC; control on the other. ED50 values are determined by means of regression analysis of the inhibition values. The test compounds are administered through a stomach canule in the form of a 1% carboxy methyl cellulose (CMC) suspension, one hour before introducing the carrageenin injection.
# [5] = ulcerogenic effect (stomach haemorrhage and ulcers); format: in vivo, male Wistar rats; conditions: rat, po, acute test, rats, five hours after treatment, read-out: UD50
# Procedure: Five hours after treatment the animals are sacrificed and their stomachs are placed into a 2.5% formaline solution. The number and rate of punctiform haemorrhage and ulcers is evaluated according to the following scale:
# 1=some punctiform haemorrhage (<10);
# 2=diffuse haemorrhage or small ulcer (<2 mm);
# 3=two or more minor small ulcer (<2 mm);
# 4=one or more large ulcer (>2 mm).
# [6] = rats, read-out: Percental inhibition of paw volume
# [7] = carrageenin edema, rats, p.o., regression analysis, read-out: ED50
# [8] = read-out: Percental inhibition of paw volume
Structure (SMILES),inhibition in vivo at 25 mg/kg [2],change in vivo at 25 mg/kg [3],change in vivo at 50 mg/kg [3],change in vivo at 100 mg/kg [3],"inhibition in vivo at 12.5 mg/kg [4, 6]","inhibition in vivo at 25 mg/kg [4, 6]","inhibition in vivo at 100 mg/kg [4, 6]","ED50 [4, 7]","inhibition in vivo at 50 mg/kg [4, 6]",other results
"Clc1ccc2c(-n3cncn3)ccnc2c1 [Compound 1, 4-(1H-1,2,4-triazole-1-yl)-7-chloro-quinoline]",–,–,–,–,–,–,–,–,–,inhibition at 37.5 µg/mL ([1]; 37.5 μg/ml): 50.6%; inhibition at 50 µg/mL [1]: 72.6%; inhibition at 75 µg/mL ([1]; 75 μg/ml): 83%; inhibition at 100 µg/mL [1]: 85.3%; inhibition at 150 µg/mL [1]: 36.8%; inhibition at 200 µg/mL [1]: 90.1%; inhibition at 400 µg/mL [1]: 99.6%
"Cc1cc(-n2cncn2)c2cccc(C)c2n1 [Compound 6, 4-(1H-1,2,4-triazole-1-yl)-2,8-dimethyl-quinoline]",–,–,–,–,–,–,–,–,–,inhibition at 25 µg/mL [1]: 49.2%; inhibition at 50 µg/mL [1]: 71.6%; inhibition at 100 µg/mL [1]: 85.1%; inhibition at 200 µg/mL [1]: 89.5%; inhibition at 400 µg/mL [1]: 99.4%
COc1cccc2c(-n3cncn3)cc(C)nc12 [Compound 8],–,–,–,–,–,–,–,–,–,inhibition at 25 µg/mL [1]: 42.1%; inhibition at 50 µg/mL [1]: 70.9%; inhibition at 100 µg/mL [1]: 82%; inhibition at 150 µg/mL [1]: 84.1%; inhibition at 200 µg/mL [1]: 91.9%; inhibition at 400 µg/mL [1]: 98.8%
Cc1cc(-n2cncn2)c2cccc(Cl)c2n1 [Compound 10],–,–,–,–,–,–,–,–,–,inhibition at 25 µg/mL [1]: 20.3%; inhibition at 50 µg/mL [1]: 42.8%; inhibition at 100 µg/mL [1]: 76.4%; inhibition at 200 µg/mL [1]: 92.7%; inhibition at 400 µg/mL [1]: 90.1%
Cc1cc(-n2cncn2)c2ccc(Cl)c(Cl)c2n1 [Compound 22],–,–,–,–,–,–,–,–,–,inhibition at 25 µg/mL [1]: 40.8%; inhibition at 50 µg/mL [1]: 67.7%; inhibition at 100 µg/mL [1]: 79.8%; inhibition at 200 µg/mL [1]: 93%; inhibition at 400 µg/mL [1]: 96.9%
Cc1cc(Sc2nc[nH]n2)c2cccc(Cl)c2n1 [Compound 46],28.1%,7%,18%,38%,–,–,–,–,–,–
Cc1nc(Sc2ccnc3cc(Cl)ccc23)n[nH]1 [Compound 61],38.2%,20%,22%,26%,29%,37%,58%,60.9 mg/kg,–,–
Cc1cc(Sc2n[nH]c(C)n2)c2ccccc2n1 [Compound 62],40.3%,19%,30%,38%,18%,51%,69%,38.4 mg/kg,59%,change in vivo at 12.5 mg/kg [3]: 17%
Cc1cc(Sc2n[nH]c(C)n2)c2cccc(C)c2n1 [Compound 64],40.6%,17%,39%,44%,15%,27%,65%,59.1 mg/kg,44%,–
Cc1cc(Sc2n[nH]c(C)n2)c2cccc(C(F)(F)F)c2n1 [Compound 67],32.8%,–,–,–,–,–,–,–,–,–
Cc1cc(Sc2n[nH]c(C)n2)c2ccc(Cl)c(C)c2n1 [Compound 69],35.2%,13%,24%,30%,27%,33%,86%,35 mg/kg,52%,–
CCc1nc(Sc2cc(C)nc3ccc(C)cc23)n[nH]1 [Compound 74],–,19%,26%,43%,26%,55%,–,25.7 mg/kg,69%,–
"Cc1cc2ccccc2nc1-n1cncn1 [Compound 83, 2-(1H-1,2,4-triazole-1-yl)-3-methyl-quinoline]",46.7%,16%,28%,59%,21%,63%,72%,28.1 mg/kg,70%,–
Cc1ccc2cc(C)c(-n3cncn3)nc2c1 [Compound 85],28.4%,–,–,–,–,–,–,–,–,–
Cc1cc2ccccc2nc1Sc1nc[nH]n1 [Compound 107],17.8%,34%,41%,88%,29%,40%,74%,30.6 mg/kg,70%,–
Cc1ccc2nc(Sc3nc[nH]n3)c(C)cc2c1 [Compound 108],35.2%,34%,46%,46%,19%,45%,70%,38.5 mg/kg,61%,–
Cc1ccc2cc(C)c(Sc3nc[nH]n3)nc2c1 [Compound 109],36.7%,–,–,–,–,–,–,–,–,–
Cc1cc2cccc(C)c2nc1Sc1nc[nH]n1 [Compound 110],32.1%,21%,34%,52%,10%,42%,61%,51.4 mg/kg,46%,–
CCc1nc(Sc2nc3ccc(C)cc3cc2C)n[nH]1 [Compound 138],35.2%,25%,37%,82%,–,–,–,–,–,–
"COc1ccc2c(c1)c(CC(=O)O)c(C)n2C(=O)c1ccc(Cl)cc1 [Indomethacin, reference compound]",–,–,–,–,–,–,–,–,–,"TD50 at 5 h [5]: 6.3 mg/kg; ED50 [4]: 4.1 mg/kg; inhibition in vivo at 1 mg/kg [4, 8]: 28%; inhibition in vivo at 2 mg/kg [4, 8]: 40%; inhibition in vivo at 4 mg/kg [4, 8]: 47%; inhibition in vivo at 8 mg/kg [4, 8]: 64%; inhibition in vivo at 12 mg/kg [4, 8]: 67%"
"COc1ccc2cc([C@H](C)C(=O)O)ccc2c1 [Naproxen, reference compound]",28.4%,31%,45%,49%,33%,49%,71%,28.7 mg/kg,64%,inhibition in vivo at 12.5 mg/kg ([2]; 12.5 mg/kg p.o.): 16.8%; change in vivo at 12.5 mg/kg [3]: 25%
"CCCCC1C(=O)N(c2ccccc2)N(c2ccccc2)C1=O [Phenylbutazon, reference compound]",–,–,–,29%,–,21%,45%,101 mg/kg,42%,"inhibition in vivo at 50 mg/kg ([2]; 50 mg/kg p.o.): 18.5%; change in vivo at 150 mg/kg ([3]; 150 mg/kg p.o.): 42%; change in vivo at 200 mg/kg ([3]; 200 mg/kg p.o.): 44%; inhibition in vivo at 200 mg/kg ([4]; 200 mg/kg p.o., rats, read-out: Percental inhibition of paw volume): 66%"
